Data taken from patent US5998405A, “Fused tropane-derivatives as neurotransmitter reuptake inhibitors” (NeuroSearch A/S, priority 1996, dated 1999).
Counter-ions that a name gives are not always drawn.

Tests used:
Type in all cases: biochemical, Wistar rat
[1] = molecular target: T1, ^3 H-noradrenaline uptake in hippocampal synaptosomes (Rattus norvegicus, UniProt Q63380); assay: In vitro inhibition of 3H-noradrenaline (3H-NA) uptake in hippocampal synaptosomes; conditions: 3H-NA 1 nM, 90 min at 37° C.
T1 construct: Hippocampi from male Wistar rats (150-200 g) are homogenized; from tissue; host or cells: hippocampus of male Wistar rats, P2 synaptosomal pellet
T1 sequence (Q63380 1-617): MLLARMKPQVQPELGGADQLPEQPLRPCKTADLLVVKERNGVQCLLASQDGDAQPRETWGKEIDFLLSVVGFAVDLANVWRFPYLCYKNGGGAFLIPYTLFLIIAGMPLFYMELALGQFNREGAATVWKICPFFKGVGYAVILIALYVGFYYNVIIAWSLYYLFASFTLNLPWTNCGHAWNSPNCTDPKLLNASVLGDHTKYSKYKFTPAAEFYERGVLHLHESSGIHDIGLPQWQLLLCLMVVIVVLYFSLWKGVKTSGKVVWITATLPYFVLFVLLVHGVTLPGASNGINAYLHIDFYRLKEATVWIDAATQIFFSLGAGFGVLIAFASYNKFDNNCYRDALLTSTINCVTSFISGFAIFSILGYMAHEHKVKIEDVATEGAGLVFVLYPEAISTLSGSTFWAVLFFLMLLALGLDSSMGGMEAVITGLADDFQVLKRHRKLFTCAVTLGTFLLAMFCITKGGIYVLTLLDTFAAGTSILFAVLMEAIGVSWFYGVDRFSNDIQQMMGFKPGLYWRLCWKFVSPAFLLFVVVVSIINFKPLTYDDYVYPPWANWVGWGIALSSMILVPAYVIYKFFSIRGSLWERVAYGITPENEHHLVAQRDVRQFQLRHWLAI
Description: (§1) The compounds of the invention have been tested for their ability to inhibit reuptake of dopamine(DA) noradrenaline(NA) and serotonine(5-HT) in synaptosomes.
(§2) Specific neurotransmitter transporters/uptake sites on nerve terminals presumably function to terminate neuronal signaling by removing the neurotransmitters dopamine, noradrenaline and serotonine, respectively, from the synaptic cleft. The activity of the transporter integral proteins can be measured in vitro by synaptosomal uptake of ^3 H-dopamine, ^3 H-noradrenaline and ^3 H-serotonine, respectively.
In Vitro Inhibition of ^3 H-noradrenaline (^3 H-NA) Uptake in Hippocampal Synaptosomes
(§3) Tissue preparation: Preparations are performed at 0-4° C. unless otherwise indicated. Hippocampi from male Wistar rats (150-200 g) are homogenized for 5-10 sec in 100 volumes of ice-cold 0.32M sucrose containing 1 mM pargyline using an Ultra-Turrax homogenizer. Monoamine oxidase activity will be inhibited in the presence of pargyline. The homogenate is centrifuged at 1000×g for 10 min. The resulting supernatant is then centrifuged at 27,000×g for 50 min and the supernatant is discarded. The pellet (P2) is resuspended in oxygenated (equilibrated with an atmosphere of 96% O2 : 4% CO2 for at least 30 min) Krebs-Ringer incubation buffer (2000 ml per g of original tissue) at pH 7.2 containing 122 mM NaCl, 0.16 mM EDTA, 4.8 mM KCl, 12.7 mM Na2 HPO4, 3.0 mM NaH2 PO4, 1.2 mM MgSO4, 0.97 mM CaCl2, 10 mM glucose and 1 mM ascorbic acid.
(§4) Assay: Aliquots of 4.0 ml tissue suspension are added to 100 μl of test solution and 100 μl of ^3 H-NA (1 nM, final concentration), mixed and incubated for 90 min at 37° C. Non-specific uptake is determined using desipramine (1 μM, final concentration). After incubation the samples are poured directly onto Whatman GF/C glass fibre filters under suction. The filters are then washed three times with 5 ml of ice-cold 0.9% (w/v) NaCl solution. The amount of radioactivity on the filters is determined by conventional liquid scintillation counting. Specific uptake is calculated as the difference between total uptake and non-specific uptake.
The test value is given as IC50 (the concentration (μM) of the test substance which inhibits the specific binding of ^3 H-NA by 50%).

[2] = molecular target: T2, ^3 H-dopamine uptake in striatal synaptosomes (Rattus norvegicus, UniProt P23977); assay: In vitro inhibition of 3H-dopamine (3H-DA) uptake in striatal synaptosomes; conditions: 3H-DA 1 nM, 25 min at 37° C.
T2 construct: Corpi striati from male Wistar rats (150-200 g) are homogenized; from tissue; host or cells: striatum (corpus striatum) of male Wistar rats, P2 synaptosomal pellet
T2 sequence (P23977 whole entry): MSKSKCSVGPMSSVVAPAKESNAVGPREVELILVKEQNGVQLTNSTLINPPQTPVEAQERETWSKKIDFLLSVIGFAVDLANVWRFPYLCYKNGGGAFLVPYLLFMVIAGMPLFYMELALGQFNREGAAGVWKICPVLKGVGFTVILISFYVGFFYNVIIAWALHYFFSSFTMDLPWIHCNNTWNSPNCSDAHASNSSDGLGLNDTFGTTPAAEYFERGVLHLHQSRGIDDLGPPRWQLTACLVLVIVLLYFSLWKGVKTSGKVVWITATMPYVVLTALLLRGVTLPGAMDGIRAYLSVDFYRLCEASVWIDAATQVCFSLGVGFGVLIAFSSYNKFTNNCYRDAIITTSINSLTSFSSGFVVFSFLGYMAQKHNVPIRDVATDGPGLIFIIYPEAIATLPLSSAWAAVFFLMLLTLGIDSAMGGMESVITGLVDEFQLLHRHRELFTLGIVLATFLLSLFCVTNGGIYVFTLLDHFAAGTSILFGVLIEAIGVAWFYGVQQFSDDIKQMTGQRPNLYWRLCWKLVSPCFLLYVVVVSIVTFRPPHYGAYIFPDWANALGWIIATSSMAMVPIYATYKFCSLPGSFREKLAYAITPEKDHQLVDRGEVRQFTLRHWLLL
Description: as §1, §2
In Vitro Inhibition of ^3 H-dopamine (^3 H-DA) Uptake in Striatal Synaptosomes
as §3, with “preparations:” for “preparation:”, “Corpi striati” for “Hippocampi”, “(8000” for “(2000”, “1” for “0.97”
as §4, with “H-DA” for “H-NA”, “25” for “90”, “benztropine (10” for “desipramine (1”
The test value is given as IC50 (the concentration (μM) of the test substance which inhibits the specific binding of ^3 H-DA by 50%).

[3] = molecular target: T3, ^3 H-5-hydroxytryptamine (serotonin) uptake in cortical synaptosomes (Rattus norvegicus, UniProt P31652); assay: In vitro inhibition of 3H-5-hydroxytryptamine (3H-5-HT, serotonin) uptake in cortical synaptosomes; conditions: 3H-5-HT 1 nM, 30 min at 37° C.
T3 construct: Cerebral cortices from male Wistar rats (150-200 g) are homogenized; from tissue; host or cells: cerebral cortex of male Wistar rats, P2 synaptosomal pellet
T3 sequence (P31652 whole entry): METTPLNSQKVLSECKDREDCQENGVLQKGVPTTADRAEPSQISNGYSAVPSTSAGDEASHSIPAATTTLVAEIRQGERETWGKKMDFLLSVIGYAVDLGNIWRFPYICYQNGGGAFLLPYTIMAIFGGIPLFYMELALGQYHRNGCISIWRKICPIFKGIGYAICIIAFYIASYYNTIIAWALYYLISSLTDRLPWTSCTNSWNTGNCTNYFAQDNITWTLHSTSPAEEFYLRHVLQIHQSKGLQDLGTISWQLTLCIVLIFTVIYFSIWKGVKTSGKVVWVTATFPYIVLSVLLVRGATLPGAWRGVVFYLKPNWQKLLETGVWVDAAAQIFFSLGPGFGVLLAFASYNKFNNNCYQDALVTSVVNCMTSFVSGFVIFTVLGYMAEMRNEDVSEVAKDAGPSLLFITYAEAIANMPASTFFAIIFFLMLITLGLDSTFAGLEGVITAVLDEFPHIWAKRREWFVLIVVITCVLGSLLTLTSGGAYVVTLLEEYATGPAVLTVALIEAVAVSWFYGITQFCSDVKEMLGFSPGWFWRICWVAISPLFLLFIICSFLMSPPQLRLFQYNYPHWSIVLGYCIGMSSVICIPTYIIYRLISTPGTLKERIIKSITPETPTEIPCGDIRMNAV
Description: as §1, §2
In Vitro Inhibition of ^3 H-5-hydroxytryptamine (^3 H-5-HT, Serotonin) Uptake in Cortical Synaptosomes
as §3, with “Cerebral cortices” for “Hippocampi”, “(1000” for “(2000”, “1” for “0.97”
as §4, with “H-5-HT” for “H-NA”, “30” for “90”, “citalopram” for “desipramine”
The test value is given as IC50 (the concentration (μM) of the test substance which inhibits the specific binding of ^3 H-5-HT by 50%).

SMILES	IC50 [1] [nM]	IC50 [2] [nM]	IC50 [3] [nM]
OC1CCN2[C@H]3CC[C@@H]2[C@@H]1[C@@H](c1ccc(Cl)c(Cl)c1)C3 (stereo partly drawn) [(1S,2S,4S,7R)-2-(3,4-Dichlorophenyl)-8-azatricyclo[5.4.0.0^4,8]undecan-11-ol]	4.1	75	2.8
CON=C1CCN2[C@H]3CC[C@@H]2[C@@H]1[C@@H](c1ccc(Cl)c(Cl)c1)C3 [(1S,2S,4S,7R)-2-(3,4-Dichlorophenyl)-8-azatricyclo[5.4.0.0^4,8]undecan-11-one O-methyl-oxime]	2	12	3.3
O=C1CCN2[C@H]3CC[C@@H]2[C@@H]1[C@@H](c1ccc(Cl)c(Cl)c1)C3 [(1S,2S,4S,7R)-2-(3,4-Dichlorophenyl)-8-azatricyclo[5.4.0.0^4,8]undecan-11-one]	35	180	7.5
COC1CN2[C@H]3CC[C@@H]2[C@@H]1[C@@H](c1ccc(Cl)c(Cl)c1)C3 (stereo partly drawn) [(1S,3S,4S,8R)-3-(3 ,4-Dichlorophenyl)-5-methoxy-7-azatricyclo[5.3.0.0^4,8]decane]	1.4	22	0.1
CC(=O)OC1CN2[C@H]3CC[C@@H]2[C@@H]1[C@@H](c1ccc(Cl)c(Cl)c1)C3 (stereo partly drawn) [(1S,3S,4S,8R)-3-(3,4-Dichlorophenyl)-7-azatricyclo[5.3.0.0^4,8]dec-5-yl acetate fumarate]	6.1	210	7.5
OC1CN2[C@H]3CC[C@@H]2[C@@H]1[C@@H](c1ccc(Cl)c(Cl)c1)C3 (stereo partly drawn) [(1S,3S,4S,8R)-3-(3,4-Dichlorophenyl)-7-azatricyclo[5.3.0.0^4,8]decan-5-ol]	7.4	250	1.8
CON=C1CN2[C@H]3CC[C@@H]2[C@@H]1[C@@H](c1ccc(Cl)c(Cl)c1)C3 [(1S,3S,4S,8R)-3-(3,4-Dichlorophenyl)-7-azatricyclo[5.3.0.0^4,8]decan-5-one O-methyl-oxime]	0.9	16	3.2
O=C1CN2[C@H]3CC[C@@H]2[C@@H]1[C@@H](c1ccc(Cl)c(Cl)c1)C3 [(1S,3S,4S,8R)-3-(3,4-Dichlorophenyl)-7-azatricyclo[5.3.0.0^4,8]decan-5-one]	5.2	120	2.6
